Data on one molecule can be found in paper PMC12909347, “Disconnect between in vitro and in vivo efficacy of the MPS1 inhibitor NTRC 0066-0 against glioblastoma” (Cellular Oncology, 2026).

For one assay, the system named is MELpT-KNL1. The experiment in a line: MELpT-KNL1 foci in E98 tumors (target inhibition). The assay is classed as in vivo, mice. To be noted: last day of 5/10 mg/kg b.i.d.x7d schedule. The procedure: Mouse heads were fixed in 4% (v/v) formaldehyde and 5% (v/v) glacial acetic acid overnight, and subsequently decalcified in 6.5% (v/v) formic acid at 37 °C for 4 days. Decalcified tissues were paraffin embedded and cut into 4 μm coronal sections that were stained with hematoxylin and eosin (H&E), and for human Vimentin (1:4,000; M0725; DakoCytomation; Glostrup, Denmark), P-gp (1:200; 13978; Cell Signaling Technology; Danvers, MA), BCRP (1:400; ab24115; Abcam; Cambridge, UK), mouse IgG (K4001, Dako) and MELpT-KNL1 (1:50; as described previously). Sections were imaged and processed using an Aperio AT2 system and ImageScope software (v12; both Leica). MELpT-KNL1 foci were imaged using an Axio Observer Z1 system (Carl Zeiss AG; Oberkochen, Germany).

For the next assay, the system named is GSC556. Put plainly: Cell survival assay, glioma stem cell line. The assay is classed as cell-based, murine. To be noted: GSC556 (EgfrvIII;p15Ink4b/p16Ink4a-/-;Pten-/-;Tp53-/-), Fig. 1C. The source says: (§1) All cell lines were authenticated using STR profiling. The serum-cultured GBM cell lines U87 (RRID: CVCL_0022) and HS683 (RRID: CVCL_0844) were purchased from the ATCC (Manassas, VA), T98G (RRID: CVCL_0556) and LN-428 (RRID: CVCL_3959) cells were kindly provided by Dr. Conchita Vens (Netherlands Cancer Institute, Amsterdam, The Netherlands), E98 cells were obtained from Prof. Dr. William Leenders (Radboud University Medical Center, Nijmegen, The Netherlands), and LN-751 (RRID: CVCL_3964) were generously made available by Prof. Dr. Monika Hegi (Centre Hospitalier Universitaire Vaudois, Lausanne, Switzerland). GSC lines were isolated from murine tumors that were generated by stereotactic injection of Lenti–Cre vector in the striatum of Egfr^vIII;p15^Ink4b/p16^Ink4aF/F (GSC750), Egfr^vIII;p15^Ink4b/p16^Ink4aF/F;Pten^F/F (GSC578) or Egfr^vIII;p15^Ink4b/p16^Ink4aF/F;Pten^F/F;Tp53^F/F (GSC556) mice, as previously described.
(§2) Wells were pre-coated with poly-ornithine (15 µg/ml for 3 h at room temperature) and subsequently with laminin (7.5 µg/ml for 1 h at 37 °C) prior to seeding GSCs to make them adherent without inducing differentiation. […] Cells were plated in 24-wells plates at low cell densities (2,000–10,000 cells/well) and exposed to different concentrations of NTRC0066-0 24 h later. NTRC0066-0 was dissolved in DMSO (Sigma-Aldrich) for in vitro experiments and final DMSO concentrations never exceeded 0.1%. When untreated wells were confluent (approximately 6–10 days after seeding, dependent on the cell line), cells were fixed and stained using a solution containing 0.5% crystal violet (w/v; Sigma-Aldrich) and 6% glutaraldehyde (v/v; Honeywell, Morris Plains, NJ). Plates were imaged using a Chemi-Doc XRS+ (Bio-rad, Hercules, CA) and analyzed using the Colony Area plugin of ImageJ [24]. IC50 curves were fitted and plotted using the ‘log(inhibitor) vs. normalized response – Variable slope’ fitting procedure of GraphPad Prism v10.3 (GraphPad Software, La Jolla, CA). Monotherapy curves were corrected for untreated controls.

The subject of another assay is GSC750. The experiment in a line: Cell survival assay, glioma stem cell line. To be noted: GSC750 (EgfrvIII;p15Ink4b/p16Ink4a-/-), Fig. 1C. In kind it is cell-based, murine.
Excerpt: as §1, §2

The test system of the next assay is GSC578. The experiment in a line: Cell survival assay, glioma stem cell line. The assay is classed as cell-based, murine. To be noted: GSC578 (EgfrvIII;p15Ink4b/p16Ink4a-/-;Pten-/-), Fig. 1C.
Excerpt: as §1, §2

The subject of a further assay is HS683. Put plainly: Cell survival assay (crystal violet), continuous exposure. The assay is classed as cell-based, human. To be noted: Fig. 1A. Here is the method:
as §2

A further assay concerns U87. The assay is described as above. The assay is classed as cell-based, human. To be noted: Fig. 1A. The procedure: as §2
For another assay, the system named is T98G. The assay is described as above. In kind it is cell-based, human. To be noted: Fig. 1A. The procedure:
as §2

The next assay relates to LN-751. The assay is described as above. To be noted: LN-751, continuous exposure, Fig. 1A. The assay is classed as cell-based, human. Here is the method: as §2
For another assay, the system named is LN-428. The description is as above. The assay is classed as cell-based, human. To be noted: LN-428, continuous exposure, Fig. 1A. Here is the method: as §2
The next assay deals with E98. Described as above. The assay is classed as cell-based, human. To be noted: Fig. 1A. Here is the method: as §2

Each structure is given as a SMILES string.

Turning to `CCc1cccc(CC)c1NC(=O)c1ccn2c1CCc1cnc(Nc3ccc(N4CCN(C)CC4)cc3OC)nc1-2` [NTRC 0066-0], the “Duration of reduction in MELpT-KNL1 foci in pro-/metaphase cells” value in the assay with MELpT-KNL1 is on record as “at least 24 h”. The IC50 in the assay with GSC556 came to 20 nM; with GSC750, 25 nM; in the assay with GSC578, 46 nM; with HS683, 42 nM; in the assay with U87 it was 31 nM; in the assay on T98G, 18 nM. The 50% inhibitory concentration (IC50) in the assay with LN-751 was 37 nM; with LN-428 it was 39 nM; in the assay with E98 it was 23 nM.
